Test results: patent US7507727B2, “Substituted quinobenzoxazine analogs and methods of using thereof” (Cylene Pharmaceuticals, Inc., priority 2003, dated 2009)

Key:
Assay type in all cases: binding
[1] = test system: TGF-β quadruplex (TGFB3-81); assay: Direct interaction assay
Source text: (§1) Direct Interaction Assay. Compounds may be evaluated for their ability to interact directly with nucleic acids capable of forming a quadruplex structure, wherein the nucleic acid is not a telomeric nucleic acid. The assay may be performed in the same or different vessels. For example, a compound may be contacted with each nucleic acid in the same vessel. Alternatively, a compound may be separately contacted with each of the nucleic acids tested in a different vessel. A telomeric nucleic acid as used herein represents a region of highly repetitive nucleic acid at the end of a chromosome. As used herein, a direct interaction is measured without the presence of a competitor nucleic acid.
(§2) An interaction between the compound and the nucleic acid may be determined for example, by measuring IC50 values, which are indicative of the binding and/or quadruplex stabilization. The selectivity of interactions may be determined, for example, by comparing measured IC50 values. For example, the-lowest IC50 values may be used to indicate a strong interaction between the compound and the nucleic acid, while highest IC50 values show a poor interaction; thus, showing selectivity of interaction. The reaction products were characterized by capillary electrophoresis.
(§3) Using a direct interaction assay, CX-3543 was screened for its ability to bind to and/or stabilize different types of quadruplexes. In this example, a 5′-fluorescent-labeled (FAM) primer (P45, 15 nM) is mixed with template DNA (15 nM) in a Tris-HCL buffer (15 mM Tris, pH 7.5) containing 10 mM MgCl2, 0.1 mM EDTA and 0.1 mM mixed deoxynucleotide triphosphates (dNTP's). The mixture is denatured at 95° C. for 5 minutes and, after cooling down to room temperature, is incubated at 37° C. for 15 minutes. After cooling down to room temperature, 1 mM KCl and the test compound at various concentrations are added, and the mixture incubated for 15 minutes at room temperature. The primer extension is performed by adding […] and Taq DNA Polymerase (2.5 U/reaction, Promega), and incubating at 70° C. for 20 minutes.

i-motif (IMOTIF99) = assay: Direct interaction assay
Source text: as §1, §2, §3

SRC quadruplex (SRC89) = assay: Direct interaction assay
Source text: as §1, §2, §3

c-myc quadruplex (MYC99) = assay: Direct interaction assay
Source text: as §1, §2, §3

[2] = test system: HMGA-2 quadruplex (HMGA-97); assay: Direct interaction assay
Source text: as §1, §2, §3

[3] = test system: BCl-2 quadruplex (BCL2-97); assay: Direct interaction assay
Source text: as §1, §2, §3

[4] = test system: H-RAS quadruplex (HRAS-85); assay: Direct interaction assay
Source text: as §1, §2, §3

[5] = test system: Hum Tel quadruplex (Humtel-95); assay: Direct interaction assay
Source text: as §1, §2, §3

[6] = test system: c-myc quadruplex relative to pUC 18 plasmid DNA; assay: Quadruplex/duplex competitor assay (selectivity screen); settings: ratio of the competitor IC50 values; FIG. 3
Description: After cooling down to room temperature, 1 mM KCl and the test compound (various concentrations) were added and the mixture incubated for 15 minutes at room temperature. The primer extension was performed by adding 10 mM KCl and Taq DNA Polymerase (2.5 U/reaction, Promega) and incubating at 70° C. for […]. The reaction was stopped by adding 1 μl of the reaction mixture to 10 μl Hi-Di Formamide mixed and 0.25 μl LIZ120 size standard. Hi-Di Formamide and LIZ120 size standard were purchased from Applied Biosystems. The method is repeated with the addition of various concentrations of competitor nucleic acids at the first step, along with the primer and template sequences. The G-quadruplex binding ligand is added at the concentration previously established to produce a 1:1 ratio of stop-product to full-length product.
Quadruplex/Duplex Competitor Assay. The selectivity of compounds for the target quadruplex sequence relative to duplex DNA may be measured using a competition assay (i.e., “selectivity screen”). […] The degree to which each competitor successfully “soaks up” drug in solution is reflected by the quantitative decrease in synthesis of the stop product. In this manner, the relative binding affinities of drug to both the target quadruplex and duplex DNA are determined. […]

Compound: CN1CCCC1CCNC(=O)c1cn2c3c(c(N4CCC(c5cnccn5)C4)c(F)cc3c1=O)Oc1cc3ccccc3cc1-2 (centres unmarked) [CX-3543]
- interaction with quadruplex ([1]; TGF-β, propeller quadruplex): strongly
- IC50 ([1]; insert TGF-β): 1.3 µM
- interaction with quadruplex (i-motif (IMOTIF99); i-motif): weakly
- IC50 (i-motif (IMOTIF99); insert I-Motif): > 10 µM
- interaction with quadruplex (SRC quadruplex (SRC89); SRC, heptad-tetrad): weakly
- IC50 (SRC quadruplex (SRC89); insert SRC): > 10 µM
- interaction with quadruplex (c-myc quadruplex (MYC99); c-myc, propeller quadruplex): strongly
- IC50 (c-myc quadruplex (MYC99); insert c-MYC): 0.6 µM
- interaction with quadruplex ([2]; HMGA-2, heptad-tetrad): weakly
- IC50 ([2]; insert HMGA): > 10 µM
- interaction with quadruplex ([3]; BCl-2, chair-eller / basket quadruplex): less strongly
- IC50 ([3]; insert BCL-2): 2 µM
- interaction with quadruplex ([4]; H-RAS, propeller quadruplex): strongly
- IC50 ([4]; insert H-RAS): 1.1 µM
- interaction with quadruplex ([5]; Hum Tel, chair-eller / basket quadruplex): less strongly
- IC50 ([5]; insert HumTel): 3.3 µM
- selectivity for the c-myc quadruplex relative to pUC 18 plasmid DNA [6]: approximately 400 ×
